The text below walks through data of patent US12240827B2, “Serotonin 5-HT2B inhibitory compounds” (Zoetis Services LLC, priority 2019, dated 2025).

Test [1] deals with dogs with Stage B2 MMVD. To be noted: cited from earlier work.
The target of test [2] is T1, hERG (Homo sapiens, UniProt Q12809).
T1 construct: stably transfected with full length hERG cDNA; expressed in transfected cells; host or cells: HEK293
The test can be described thus: hERG in-vitro assay, IonWorks Barracuda population patch clamp. It counts as cell-based. To be noted: hERG/HEK293 cells; hERG current block, 5 minutes exposure. The procedure:
Stock solutions of compounds of the invention and positive control (cisapride; 0.001-3 μM) were prepared in DMSO. Stock solutions were diluted in a HEPES-buffered physiological saline solution. Test and control solutions contained 0.3% DMSO. Human hERG/HEK293 renal epithelial cells stably transfected with full length hERG cDNA were cultured in Dulbecco's Modified Eagle Medium/Nutrient Mixture F-12 (D-MEM/F-12) supplemented with 10% fetal bovine serum, 100 U/mL penicillin G sodium, 100 μg/mL streptomycin sulfate and 500 μg/mL G418. Before testing, cells in culture dishes were rinsed with Hank's Balanced Salt Solution (HBSS) and detached with accutase. Immediately before use in the IonWorks Barracuda™ system, the cells were washed with buffered physiological saline solution (HB-PS) buffer to remove the accutase and re-suspended in 5 mL of HB-PS. The test article effects were evaluated using IonWorks Barracuda™ systems (Molecular Devices Corporation, Union City, CA). HEPES-buffered intracellular solution for whole cell recordings was loaded into the intracellular compartment of the Population Patch Clamp™ (PPC) planar electrode.
Extracellular buffer (HB-PS) was loaded into PPC planar electrode plate wells (11 μL/well). The cell suspension was pipetted into the wells of the PPC planar electrode (9 μL/well). After establishment of a whole-cell configuration (the perforated patch), membrane currents were recorded using patch clamp amplifier in the IonWorks Barracuda™ system. The current recordings were performed one (1) time before test article application to the cells (baseline) and one (1) time after application of the test article. Test article concentrations were applied to naïve cells. Each application consisted of addition of 20 μL of 2× concentrated test article solution to the total 40 μL of final volume of the extracellular well of the PPC plate. Duration of exposure to each compound concentration was five (5) minutes. hERG current was elicited using a pulse pattern with fixed amplitudes (the first conditioning pre-pulse to 10 mV for 60 second, the second conditioning pre-pulse: −90 mV for 20 ms; the test pulse: +40 mV for 100 ms) from a holding potential of 0 mV (‘zero holding’ procedure). hERG current was measured as a difference between the peak current at 1 ms and at the end of test step to +40 mV. Data acquisition and analyses were performed using the IonWorks Barracuda™ system operation software (version 2.0.2). The decrease in current amplitude after test article application was used to calculate the percent block relative to control. Results for each test article concentration (n≥1) were averaged; the mean and standard deviation values were calculated and used to generate dose-response curves.

The target in test [3] is T2, canine 5-HT2B receptor (Canis lupus familiaris, UniProt Q50DZ8).
T2 construct: expressed in transfected cells; host or cells: CHO-K1
The test can be described thus: Canine 5-HT2B (c5-HT2B) in-vitro assay, FLIPR calcium response. The test is classed as cell-based. The following applies: CHO-K1 cells stably expressing canine 5-HT2B receptor; inhibition of EC80 serotonin calcium response. The procedure: CHO-K1 cells stably expressing the canine 5-HT2B receptor were seeded at 20,000 cells per well in 20 μl culture media (DMEM with GlutaMAX™ high glucose+5% dialyzed FBS+10 mM HEPES+1×MEM Non-Essential Amino Acids of a 384-well black plate with clear bottom for at least 18 hours at 37° C. and 5% CO2. The cell plate was loaded with 20 μl/well of the FLIPR® Calcium 5 Assay kit prepared in HBSS containing calcium and magnesium supplemented with 20 mM HEPES and 5 mM Probenecid at pH 7.4 and incubated at 37° C. and 5% CO2 for 30 minutes and then an additional 30 minutes at room temperature. The intracellular calcium response was measured using the FLIPR Tetra® instrument measuring the kinetic response of the Calcium 5 dye at an excitation wavelength of 470-495 nm and emission wavelength of 515-575 nm at room temperature. The cells were initially challenged with a 5× concentration of the antagonist (10 μl/well) after an initial baseline recording and the calcium response was recorded for almost 2 minutes. After the completion of the initial antagonist challenge, the cell plate was incubated at room temperature in the FLIPR Tetra® instrument for 10 minutes. Finally, a second kinetic assay was performed after the 10 minute incubation at room temperature to measure the inhibitory response of the EC80 concentration of serotonin (15 μl/well) after an initial baseline recording. The IC50 concentration was determined for each antagonist tested.

Test [4] concerns c5-HT2B. The following applies: literature value; cited from earlier work.

Bounds are passed on as bounds.

T1 sequence (Q12809 whole entry): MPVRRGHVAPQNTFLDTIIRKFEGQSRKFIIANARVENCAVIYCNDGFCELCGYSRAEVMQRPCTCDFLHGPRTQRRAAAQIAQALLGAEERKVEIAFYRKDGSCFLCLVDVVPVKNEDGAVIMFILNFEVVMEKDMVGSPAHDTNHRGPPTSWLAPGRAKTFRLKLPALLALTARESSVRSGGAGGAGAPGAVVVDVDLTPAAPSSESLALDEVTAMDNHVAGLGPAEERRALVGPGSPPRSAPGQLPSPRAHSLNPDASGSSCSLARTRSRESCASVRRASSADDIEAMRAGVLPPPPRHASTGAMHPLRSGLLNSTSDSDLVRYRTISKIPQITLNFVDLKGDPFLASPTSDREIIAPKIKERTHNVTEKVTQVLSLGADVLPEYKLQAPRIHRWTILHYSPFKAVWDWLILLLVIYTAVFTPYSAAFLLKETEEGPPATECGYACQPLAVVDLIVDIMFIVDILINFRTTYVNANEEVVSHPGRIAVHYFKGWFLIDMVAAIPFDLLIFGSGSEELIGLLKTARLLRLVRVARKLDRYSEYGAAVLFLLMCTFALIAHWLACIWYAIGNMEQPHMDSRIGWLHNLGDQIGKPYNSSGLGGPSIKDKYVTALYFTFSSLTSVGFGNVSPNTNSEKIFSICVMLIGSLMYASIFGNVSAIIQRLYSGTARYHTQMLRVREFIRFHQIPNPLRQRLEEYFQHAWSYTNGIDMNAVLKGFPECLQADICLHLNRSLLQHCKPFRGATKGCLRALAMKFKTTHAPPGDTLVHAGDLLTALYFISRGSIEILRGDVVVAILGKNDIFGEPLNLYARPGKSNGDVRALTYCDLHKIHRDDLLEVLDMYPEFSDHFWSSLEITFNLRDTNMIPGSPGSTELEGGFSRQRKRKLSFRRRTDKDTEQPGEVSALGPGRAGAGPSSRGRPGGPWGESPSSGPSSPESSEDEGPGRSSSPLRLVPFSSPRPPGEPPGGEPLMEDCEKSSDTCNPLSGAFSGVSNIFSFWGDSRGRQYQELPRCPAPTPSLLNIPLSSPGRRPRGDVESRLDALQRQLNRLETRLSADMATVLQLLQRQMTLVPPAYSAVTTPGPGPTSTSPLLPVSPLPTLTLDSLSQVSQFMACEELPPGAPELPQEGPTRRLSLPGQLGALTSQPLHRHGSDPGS
T2 sequence (Q50DZ8 1-434): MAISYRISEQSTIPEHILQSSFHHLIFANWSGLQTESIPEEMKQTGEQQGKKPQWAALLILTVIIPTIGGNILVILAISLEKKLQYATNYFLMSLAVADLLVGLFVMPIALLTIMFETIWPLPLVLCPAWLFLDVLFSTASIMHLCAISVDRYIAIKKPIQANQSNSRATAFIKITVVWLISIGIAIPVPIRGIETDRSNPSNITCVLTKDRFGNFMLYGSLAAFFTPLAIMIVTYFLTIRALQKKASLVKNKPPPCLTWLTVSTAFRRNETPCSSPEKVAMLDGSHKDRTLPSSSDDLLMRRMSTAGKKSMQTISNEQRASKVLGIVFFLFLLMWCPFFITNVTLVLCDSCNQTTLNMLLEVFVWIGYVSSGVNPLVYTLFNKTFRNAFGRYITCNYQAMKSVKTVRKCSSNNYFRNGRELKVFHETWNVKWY

As to `COc1ccc(-c2nc3ccc(C4=NNC(=O)CC4C)cc3[nH]2)cc1` (centres unmarked) [pimobendan], the “time longer to develop CHF or die from MMVD than dogs receiving placebo” value in test [1] (pimobendan 0.2 or 0.3 mg/kg twice a day) is on record as 462 days. Moreover, the “delay in prolonging preclinical stage” value in test [1] (versus placebo) was 60%. Turning to `O=C(c1ccc(-c2ccc(C(F)F)cc2)cc1)N1CCC(Nc2ncc[nH]2)CC1` [Example 33, (4-((1H-imidazol-2-yl)amino)piperidin-1-yl)(4′-(difluoromethyl)-[1,1′-biphenyl]-4-yl)methanone], the IC50 in test [2] is 5290 nM; in test [3], 18.6 nM.

With `O=C(c1ccc(-c2ccccc2)cc1)N1CCC(c2ncc[nH]2)CC1` [CA-3, (4-(1H-imidazol-2-yl)piperidin-1-yl)([1,1′-biphenyl]-4-yl)methanone, reference compound], the IC50 in test [2] amounted to 611 nM; in test [3] it was 0.64 nM. For `O=C(c1ccc(-c2ccc(C(F)(F)F)cc2)cc1)N1CCC(Cc2ncc[nH]2)CC1` [Example 12, (4-((1H-imidazol-2-yl)methyl)piperidin-1-yl)(4′-(trifluoromethyl)-[1,1′-biphenyl]-4-yl)methanone] the same measures were 4840 nM and 63.9 nM. For `O=C(c1ccc(-n2ccc3ccccc32)cc1)N1CCC(c2ncc[nH]2)CC1` [Example 18, (4-(1H-imidazol-2-yl)piperidin-1-yl)(4-(1H-indol-1-yl)phenyl)methanone] the same measures were 3400 nM and 0.01 nM. For `O=C(c1ccc(-c2ccc(F)cc2)cc1)N1CCC(Nc2ncc[nH]2)CC1` [Example 1, (4-((1H-imidazol-2-yl)amino)piperidin-1-yl)(4′-fluoro-[1,1′-biphenyl]-4-yl)methanone] the same measures were 1540 nM and 2 nM. Consider `O=C(c1ccc(Nc2ccccc2)cc1)N1CCC(c2ncc[nH]2)CC1` [Example 9, (4-(1H-imidazol-2-yl)piperidin-1-yl)(4-(phenylamino)phenyl)methanone], for which the values for the IC50 in test [2] and in test [3] were 3850 nM and 0.42 nM, respectively. On to `O=C(c1ccc(-c2ccc(F)cc2)cc1)N1CCC(Cc2ncc[nH]2)CC1` [CA-1, (4-((1H-imidazol-2-yl)methyl)piperidin-1-yl)(4′-fluoro-[1,1′-biphenyl]-4-yl)methanone, reference compound], for which the figures for the IC50 in test [2] and in test [3] were 546 nM and 0.3 nM, respectively. Take `O=C(c1ccc(-c2cc3ccccc3[nH]2)cc1)N1CCC(c2ncc[nH]2)CC1` [Example 30, (4-(1H-imidazol-2-yl)piperidin-1-yl)(4-(1H-indol-2-yl)phenyl)methanone]: the figures for the IC50 in test [2] and in test [3] were 11000 nM and 1.95 nM, respectively. For `O=C(c1ccc(-c2ccccc2F)cc1)N1CCC(c2ncc[nH]2)CC1` [CA-7, (4-(1H-imidazol-2-yl)piperidin-1-yl)(2′-fluoro-[1,1′-biphenyl]-4-yl)methanone, reference compound] the same measures were 1100 nM and 0.09 nM. Take `O=C(c1ccc(-c2ccc3c(c2)OCO3)cc1)N1CCC(c2ncc[nH]2)CC1` [Example 13, (4-(1H-imidazol-2-yl)piperidin-1-yl)(4-(benzo[d][1,3]dioxol-5-yl)phenyl)methanone]: the half-maximal inhibitory concentration (IC50) was found to be 1730 nM in test [2] and 1.4 nM in test [3]. For `O=C(c1ccc2c(c1)[nH]c1ccccc12)N1CCC(c2ncc[nH]2)CC1` [Example 14, (4-(1H-imidazol-2-yl)piperidin-1-yl)(9H-carbazol-2-yl)methanone] the same measures were 5720 nM and 1.3 nM. For `O=C(c1ccc(Oc2ccccc2)cc1)N1CCC(c2ncc[nH]2)CC1` [Example 8, (4-(1H-imidazol-2-yl)piperidin-1-yl)(4-phenoxyphenyl)methanone] the same measures were 3140 nM and 0.64 nM.

On to `Cc1cnc(C2CCN(C(=O)c3ccc(-c4ccc5cc[nH]c5c4)cc3)CC2)[nH]1` [Example 27, (4-(1H-indol-6-yl)phenyl)(4-(5-methyl-1H-imidazol-2-yl)piperidin-1-yl)methanone], for which the IC50 was determined as 9280 nM in test [2] and 1.1 nM in test [3].

As to `Cc1c[nH]c(C2CCN(C(=O)c3ccc(-c4c[nH]c5ccc(F)cc45)cc3)CC2)n1` [Example 34, (4-(5-fluoro-1H-indol-3-yl)phenyl)(4-(4-methyl-1H-imidazol-2-yl)piperidin-1-yl)methanone], the results for the IC50 in test [2] and in test [3] were 13900 nM and 21 nM, respectively. For `Cc1c[nH]c(C2CCN(C(=O)c3ccc(-c4c(C)[nH]c5ccccc45)cc3)CC2)n1` [Example 26, (4-(4-methyl-1H-imidazol-2-yl)piperidin-1-yl)(4-(2-methyl-1H-indol-3-yl)phenyl)methanone] the same measures were 13100 nM and 0.84 nM. For `O=C(c1ccc(-c2ccc(OC(F)(F)F)cc2)cc1)N1CCC(c2nc3ccccc3[nH]2)CC1` [CA-2, (4-(1H-benzo[d]imidazol-2-yl)piperidin-1-yl)(4′-(trifluoromethoxy)-[1,1′-biphenyl]-4-yl)methanone], the IC50 in test [4] was 95 nM. With `Cc1c[nH]c(C2CCN(C(=O)c3ccc(-c4ccc(F)cc4)cc3)CC2)n1` [CA-6, (4′-fluoro-[1,1′-biphenyl]-4-yl)(4-(4-methyl-1H-imidazol-2-yl)piperidin-1-yl)methanone, reference compound], the IC50 in test [2] was below 30 nM; in test [3] it was 7.3 nM.
